The test system of experiment [1] is RPMI-7951 melanoma cells. Kind of experiment: Western blotting, RPMI-7951 cells. The conditions noted are these: western blot, FIG. 5. The format is cell-based, human. As to the method:
(§1) Human melanoma cell lines carrying the V600E BRAF mutation (A375, SK-MEL-28, RPMI-7951) and human prostate cancer cells (LNCaP, 22Rv1) were purchased from the American Type Culture Collection (Manassas, Va.) and grown following ATCC recommendations, in the presence of fetal bovine serum (10%), 2 mM L-glutamine and antibiotics (100 IU/ml penicillin and 100 μg/ml streptomycin) purchased from Sigma Aldrich. Cells were maintained at 37° C., 5% CO2 atmosphere.
(§2) Cells, treated with compound for 24 hr, were lysed in RIPA buffer (CST, Danvers, Mass., USA) on ice and clarified by centrifugation. Equal amounts of proteins were resolved by SDS-PAGE and immunoblotted with indicated antibodies. The antigen-antibody complex was visualized and quantitated using an Odyssey system (LI-COR, Lincoln, Nebr., USA).
Background: A western blot detects proteins with antibodies after separation by electrophoresis.

The subject of experiment [2] is B-raf V600E in melanoma cell line A375. The settings on record: cited from earlier work.
Experiment [3] deals with B-raf mutants in COS cells. The conditions noted are these: cited from earlier work.
The next experiment has as its system A375 melanoma cells. As to the kind of experiment: Western blotting, A375 cells. The settings on record: A375, 24 hr, western blot. The experiment is classed as cell-based, human. How it is done:
as §1, §2

The next experiment concerns HT-144. Kind of experiment: Cell viability assay (Cell Titer-Glo), HT-144. The experiment is classed as cell-based. The conditions noted are these: Homo sapiens; HT-144, malignant melanoma, BRAF V600E; read-out: Ganetespib IC50. How it is done:
(§3) Cell viability was measured using the Cell Titer-Glo assay (Promega). In brief, cells were plated in 96-well plates in triplicate at optimal seeding density (determined empirically for each cell line) and incubated at 37° C., 5% CO2 atmosphere for 24 hr prior to the addition of drug or vehicle (0.3% DMSO) to the culture medium. At the end of the assay, Cell Titer-Glow was added to the wells per manufactures recommendation, shaken for two minutes and incubated for 10 minutes at room temperature. Luminescence (0.1 sec) was measured with a Victor II microplate reader (Perkin Elmer) and the resulting data were used to calculate cell viability, normalized to vehicle control.
A general note: In ATP-based viability assays light output follows the ATP content of the culture.

Experiment [4] has as its system RPMI-7951 melanoma cells. As to the kind of experiment: Cell viability assay, RPMI-7951 melanoma cells. The experiment is classed as cell-based. The conditions noted are these: Homo sapiens; RPMI-7951 cells; read-out: IC90 cell killing. As to the method: as §1, §3
For a further experiment, the system named is COLO-829. As to the kind of experiment: Cell viability assay (Cell Titer-Glo), COLO-829. The format is cell-based. The settings on record: Homo sapiens; COLO-829, malignant melanoma, BRAF V600E; read-out: Ganetespib IC50. As to the method: as §3
The subject of another experiment is ACN. Kind of experiment: Cell viability assay (Cell Titer-Glo), ACN. The format is cell-based. The conditions noted are these: Homo sapiens, neuroblastoma, BRAF V600E, read-out: Ganetespib IC50. How it is done:
as §3

The test system of the next experiment is SK-MEL-28 melanoma cells. As to the kind of experiment: Western blotting, SK-MEL-28 cells. The conditions noted are these: SK-MEL-28, 24 hr, western blot, FIG. 1. The experiment is classed as cell-based, human. How it is done:
as §1, §2

Another experiment has as its system SH-4. Kind of experiment: Cell viability assay (Cell Titer-Glo), SH-4. The experiment is classed as cell-based. The conditions noted are these: Homo sapiens; SH-4, malignant melanoma, BRAF V600E; read-out: Ganetespib IC50. As to the method:
as §3

Another experiment concerns RKO. As to the kind of experiment: Cell viability assay (Cell Titer-Glo), RKO. The experiment is classed as cell-based. The conditions noted are these: Homo sapiens, carcinoma, BRAF V600E, read-out: Ganetespib IC50. As to the method: as §3
The test system of the next experiment is SW982. Kind of experiment: Cell viability assay (Cell Titer-Glo), SW982. The format is cell-based. The settings on record: Homo sapiens; SW982, synovial sarcoma, BRAF V600E; read-out: Ganetespib IC50. As to the method:
as §3

The next experiment deals with DBTRG-05MG. Kind of experiment: Cell viability assay (Cell Titer-Glo), DBTRG-05MG. The experiment is classed as cell-based. The settings on record: Homo sapiens, glioma, BRAF V600E, read-out: Ganetespib IC50. How it is done: as §3
A further experiment has as its system HTC-C3. Kind of experiment: Cell viability assay (Cell Titer-Glo), HTC-C3. The experiment is classed as cell-based. The conditions noted are these: Homo sapiens; HTC-C3, carcinoma, BRAF V600E; read-out: Ganetespib IC50. As to the method: as §3
A further experiment deals with K5. Kind of experiment: Cell viability assay (Cell Titer-Glo), K5. The experiment is classed as cell-based. The settings on record: Homo sapiens; K5, carcinoma, BRAF V600E; read-out: Ganetespib IC50. How it is done: as §3
A further experiment has as its system RVH-421. As to the kind of experiment: Cell viability assay (Cell Titer-Glo), RVH-421. The settings on record: Homo sapiens; RVH-421, malignant melanoma, BRAF V600E; read-out: Ganetespib IC50. The format is cell-based. As to the method: as §3
The test system of the next experiment is UACC-257. As to the kind of experiment: Cell viability assay (Cell Titer-Glo), UACC-257. The conditions noted are these: Homo sapiens; UACC-257, malignant melanoma, BRAF V600E; read-out: Ganetespib IC50. The format is cell-based. As to the method: as §3
A further experiment concerns A101D. As to the kind of experiment: Cell viability assay (Cell Titer-Glo), A101D. The experiment is classed as cell-based. The settings on record: Homo sapiens, malignant melanoma, BRAF V600E, read-out: Ganetespib IC50. As to the method:
as §3

The next experiment has as its system A375. Kind of experiment: Cell viability assay (Cell Titer-Glo), A375. The experiment is classed as cell-based. The settings on record: Homo sapiens, A-375; A375, malignant melanoma, BRAF V600E; read-out: Ganetespib IC50. As to the method: as §1, §3
The test system of another experiment is SW872. As to the kind of experiment: Cell viability assay (Cell Titer-Glo), SW872. The format is cell-based. The conditions noted are these: Homo sapiens; SW872, liposarcoma, BRAF V600E; read-out: Ganetespib IC50. As to the method:
as §3

The subject of a further experiment is SK-HEP-1. As to the kind of experiment: Cell viability assay (Cell Titer-Glo), SK-HEP-1. The format is cell-based. The settings on record: Homo sapiens, SK-HEP1; SK-HEP-1, carcinoma, BRAF V600E; read-out: Ganetespib IC50. How it is done: as §3
In another experiment the test system is MMAC-SF. Kind of experiment: Cell viability assay (Cell Titer-Glo), MMAC-SF. The experiment is classed as cell-based. The settings on record: Homo sapiens, malignant melanoma, BRAF V600E, read-out: Ganetespib IC50. How it is done: as §3
The next experiment concerns SK-MEL-5. Kind of experiment: Cell viability assay (Cell Titer-Glo), SK-MEL-5. The format is cell-based. The conditions noted are these: Homo sapiens; SK-MEL-5, malignant melanoma, BRAF V600E; read-out: Ganetespib IC50. How it is done: as §3
Experiment [5] concerns human cancer cells harboring the V600E mutation in BRAF. As to the kind of experiment: Cell viability, panel of BRAF mutant cancer cell lines. The experiment is classed as cell-based. The settings on record: large panel of human cancer cells harboring BRAF V600E; read-out: IC50 across panel. As to the method:
as §3

The test system of the next experiment is LS-411N. Kind of experiment: Cell viability assay (Cell Titer-Glo), LS-411N. The experiment is classed as cell-based. The settings on record: Homo sapiens, carcinoma, BRAF V600E, read-out: Ganetespib IC50. How it is done: as §3
In the next experiment the test system is IST-MEL1. Kind of experiment: Cell viability assay (Cell Titer-Glo), IST-MEL1. The format is cell-based. The settings on record: Homo sapiens; IST-MEL1, malignant melanoma, BRAF V600E; read-out: Ganetespib IC50. As to the method: as §3
For a further experiment, the system named is MZ7-mel. As to the kind of experiment: Cell viability assay (Cell Titer-Glo), MZ7-mel. The experiment is classed as cell-based. The settings on record: Homo sapiens, malignant melanoma, BRAF V600E, read-out: Ganetespib IC50. As to the method:
as §3

As to `Cn1cnc2c(F)c(Nc3ccc(Br)cc3Cl)c(C(=O)NOCCO)cc21` [AZD6244, reference compound], in the experiment on RPMI-7951 melanoma cells [1] (RPMI-7951 (overexpress COT), 24 hr), the “suppression of ERK phosphorylation” value is recorded as “neither the MEK inhibitor AZD6244 nor the BRAF inhibitor PLX-4032 were capable of suppressing ERK phosphorylation”.

For the molecule `C=CCNC1=C2C[C@@H](C)C[C@H](OC)[C@H](O)[C@@H](C)/C=C(\C)[C@H](OC(N)=O)[C@@H](OC)/C=C\C=C(/C)C(=O)NC(=CC1=O)C2=O` [Compound 17AAG], the “B-raf degradation rate versus wild type B-raf CHL cells” value in [2] is recorded as “degraded more rapidly”. The “degradation of B-raf mutants E586K and L597V” value in experiment [3] (cells treated with 17AAG) is reported as “not sensitive to degradation”. Also, the “degradation of B-raf mutants V600D, G469A, G469E, G596R, G466V, G594V” value in experiment [3] (transvected into COS cells, versus wild type B-raf) is “degraded more rapidly than wild type B-raf”.

For the molecule `CC(C)c1cc(-c2nnc(O)n2-c2ccc3c(ccn3C)c2)c(O)cc1O` [Ganetespib, 3-(2,4-DIHYDROXY-5- ISOPROPYL-PHENYL)-4-(1- METHYL-INDOL-5-YL)-5- HYDROXY-[1,2,4]TRIAZOLE], the “MEK and ERK activity” value with A375 melanoma cells (FIG. 1) was “loss of MEK and ERK activity”; with SK-MEL-28 melanoma cells, “loss of MEK and ERK activity”; in the experiment with RPMI-7951 melanoma cells [1] (RPMI-7951, 24 hr) it was “effectively inhibited”. Further, the “destabilizing mutant BRAF” value in the experiment with A375 melanoma cells (FIG. 1) and in the experiment on SK-MEL-28 melanoma cells was “fully capable of destabilizing mutant BRAF” in each case. In addition, in the experiment on A375 melanoma cells (FIG. 2), the Cdc2 stability entry is reported as “destabilized Cdc2”. Besides, the “PI3K and mTOR-mediated phosphorylation of AKT and 4EBP1” value in the experiment on A375 melanoma cells (FIG. 2) is reported as “suppressed”. For the same molecule, the “apoptosis as determined by PARP cleavage” value in the experiment with A375 melanoma cells (FIG. 2) was “resulting in apoptosis”. Moreover, the “destabilization of BRAF dimerization partner CRAF” value in the experiment with A375 melanoma cells (FIG. 3) is given as “able to destabilize”. The “potency in deactivating/dephosphorylating ERK versus PLX-4032 or AZD6244” value in the experiment on A375 melanoma cells (FIG. 3) is reported as “greater potency”. Moreover, the IC50 (as a rule, the concentration that inhibits the measured activity by half) in the experiment with HT-144 was 0.006 µM; in the experiment on COLO-829 it was 0.005 µM; with ACN, 0.004 µM; in the experiment on SH-4, 0.012 µM; in the experiment with RKO, 0.004 µM; in the experiment on SW982 it was 0.01 µM. Besides, the IC50 in the experiment on DBTRG-05MG worked out at 0.014 µM; with HTC-C3, 0.021 µM; in the experiment with K5, 0.011 µM; in the experiment on RVH-421, 0.026 µM; in the experiment with UACC-257, 0.024 µM; in the experiment with A101D it was 0.009 µM. In addition, the IC50 in the experiment with A375 is 0.02 µM; in the experiment on SW872, 0.022 µM; with SK-HEP-1, 0.009 µM; in the experiment with MMAC-SF it was 0.031 µM; in the experiment on SK-MEL-5, 0.018 µM; in experiment [5], 0.004 to 0.04 µM. Further, the results for the IC50 in the experiment with LS-411N, with IST-MEL1 and in the experiment with MZ7-mel were 0.005 µM, 0.004 µM and 0.026 µM, respectively. Further, the concentration for an effect of 90% (IC90) (in general, the concentration needed for an effect of 90%) in the experiment with RPMI-7951 melanoma cells [4] was determined as 0.01 µM. Moreover, the AKT activity entry with RPMI-7951 melanoma cells [1] (RPMI-7951, 24 hr) was “effectively inhibited”.

The values above are taken from patent US9402831B2, “Combination therapy of HSP90 inhibitors with BRAF inhibitors” (Synta Pharmaceuticals Corp., priority 2011, dated 2016).
